{"source": "patent US20260250318A1", "about": "“COMPOSITIONS AND METHODS FOR CROSSING THE BLOOD BRAIN BARRIER” (VOYAGER THERAPEUTICS, INC., priority 2022, published 2026)", "key": {"brain": {"system": "brain", "assay": "Matured TTM-001 and TTM-002 variants, NGS enrichment in mouse brain", "assay_type": "in vivo, mice", "settings": "relative to AAV9 control"}, "[1]": {"system": "brains, heart, liver, muscle, and DRG of the NHPs", "assay": "Maturation of TTM-001 and TTM-002 capsids, NGS enrichment in NHP tissues", "assay_type": "in vivo", "settings": "relative to AAV9 control", "method_in_brief": "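Variants carry mutations within and flanking the loop IV peptide insert: positions 450–466 were triplet-randomized, while positions 449–466 received low-frequency point mutations. The combined pool went into two NHPs, and each peptide was scored by NGS enrichment ratio against AAV9.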"}, "[2]": {"settings": "NGS fold-enrichment of matured AAV capsid variants, NHP brain, RNA"}, "[3]": {"settings": "NGS fold-enrichment, brain of mice"}, "[4]": {"settings": "NGS fold-enrichment, DRG of NHPs"}, "[5]": {"settings": "NGS fold-enrichment, RNA, brain of NHPs"}, "[6]": {"settings": "NGS fold-enrichment, heart of NHPs"}, "[7]": {"settings": "NGS fold-enrichment, liver DNA of NHPs"}, "[8]": {"settings": "NGS fold-enrichment, liver RNA of NHPs"}, "[9]": {"settings": "NGS fold-enrichment, muscle of NHPs"}}}
{"sequence": "KTVHGSGSPHSKAQSQQT", "values": [{"measurement": "Fold Enrichment relative to AAV9, Brain (Mouse)", "setting": "brain; mouse brain", "value": 54.185, "unit": "fold"}, {"measurement": "Fold Enrichment relative to AAV9, Brain (NHP)", "setting": "[1]; [2]", "value": 51.057, "unit": "fold"}, {"measurement": "Fold Enrichment relative to AAV9, DRG (NHP)", "setting": "[1]; NHP DRG", "value": 0.000, "unit": "fold"}, {"measurement": "Fold Enrichment relative to AAV9, Heart (NHP)", "setting": "[1]; NHP heart", "value": 0.000, "unit": "fold"}, {"measurement": "Fold Enrichment relative to AAV9, Liver DNA (NHP)", "setting": "[1]; NHP liver, DNA", "value": 0.146, "unit": "fold"}, {"measurement": "Fold Enrichment relative to AAV9, Liver RNA (NHP)", "setting": "[1]; NHP liver, RNA", "value": 0.143, "unit": "fold"}, {"measurement": "Fold Enrichment relative to AAV9, Muscle (NHP)", "setting": "[1]; NHP muscle", "value": 0.000, "unit": "fold"}]}
{"sequence": "KTVIGSGSPHSKALNQQT", "values": [{"measurement": "Fold Enrichment relative to AAV9, Brain (Mouse)", "setting": "brain; [3]", "value": 60.369, "unit": "fold"}, {"measurement": "Fold Enrichment relative to AAV9, DRG (NHP)", "setting": "[1]; [4]", "value": 0.000, "unit": "fold"}, {"measurement": "Fold Enrichment relative to AAV9, Brain (NHP)", "setting": "[1]; [5]", "value": 62.358, "unit": "fold"}, {"measurement": "Fold Enrichment relative to AAV9, Heart (NHP)", "setting": "[1]; [6]", "value": 0.310, "unit": "fold"}, {"measurement": "Fold Enrichment relative to AAV9, Liver DNA (NHP)", "setting": "[1]; [7]", "value": 0.245, "unit": "fold"}, {"measurement": "Fold Enrichment relative to AAV9, Liver RNA (NHP)", "setting": "[1]; [8]", "value": 0.062, "unit": "fold"}, {"measurement": "Fold Enrichment relative to AAV9, Muscle (NHP)", "setting": "[1]; [9]", "value": 0.000, "unit": "fold"}]}
{"sequence": "KTVIGSGSPHSKSQNQQT", "values": [{"measurement": "Fold Enrichment relative to AAV9, Brain (Mouse)", "setting": "brain; mouse brain", "value": 69.121, "unit": "fold"}, {"measurement": "Fold Enrichment relative to AAV9, Brain (NHP)", "setting": "[1]; [2]", "value": 54.603, "unit": "fold"}, {"measurement": "Fold Enrichment relative to AAV9, DRG (NHP)", "setting": "[1]; NHP DRG", "value": 0.000, "unit": "fold"}, {"measurement": "Fold Enrichment relative to AAV9, Heart (NHP)", "setting": "[1]; NHP heart", "value": 0.000, "unit": "fold"}, {"measurement": "Fold Enrichment relative to AAV9, Liver DNA (NHP)", "setting": "[1]; NHP liver, DNA", "value": 0.106, "unit": "fold"}, {"measurement": "Fold Enrichment relative to AAV9, Liver RNA (NHP)", "setting": "[1]; NHP liver, RNA", "value": 0.000, "unit": "fold"}, {"measurement": "Fold Enrichment relative to AAV9, Muscle (NHP)", "setting": "[1]; NHP muscle", "value": 0.000, "unit": "fold"}]}
{"sequence": "KTVKDSGSPHSKAQNQQT", "values": [{"measurement": "Fold Enrichment relative to AAV9, Brain (Mouse)", "setting": "brain; [3]", "value": 87.334, "unit": "fold"}, {"measurement": "Fold Enrichment relative to AAV9, DRG (NHP)", "setting": "[1]; [4]", "value": 0.000, "unit": "fold"}, {"measurement": "Fold Enrichment relative to AAV9, Brain (NHP)", "setting": "[1]; [5]", "value": 60.216, "unit": "fold"}, {"measurement": "Fold Enrichment relative to AAV9, Heart (NHP)", "setting": "[1]; [6]", "value": 0.019, "unit": "fold"}, {"measurement": "Fold Enrichment relative to AAV9, Liver DNA (NHP)", "setting": "[1]; [7]", "value": 0.251, "unit": "fold"}, {"measurement": "Fold Enrichment relative to AAV9, Liver RNA (NHP)", "setting": "[1]; [8]", "value": 0.443, "unit": "fold"}, {"measurement": "Fold Enrichment relative to AAV9, Muscle (NHP)", "setting": "[1]; [9]", "value": 0.000, "unit": "fold"}]}
{"sequence": "KTVKGSGSPHSKAQDQQT", "values": [{"measurement": "Fold Enrichment relative to AAV9, Brain (Mouse)", "setting": "brain; [3]", "value": 58.114, "unit": "fold"}, {"measurement": "Fold Enrichment relative to AAV9, DRG (NHP)", "setting": "[1]; [4]", "value": 0.000, "unit": "fold"}, {"measurement": "Fold Enrichment relative to AAV9, Brain (NHP)", "setting": "[1]; [5]", "value": 61.175, "unit": "fold"}, {"measurement": "Fold Enrichment relative to AAV9, Heart (NHP)", "setting": "[1]; [6]", "value": 0.041, "unit": "fold"}, {"measurement": "Fold Enrichment relative to AAV9, Liver DNA (NHP)", "setting": "[1]; [7]", "value": 0.090, "unit": "fold"}, {"measurement": "Fold Enrichment relative to AAV9, Liver RNA (NHP)", "setting": "[1]; [8]", "value": 0.432, "unit": "fold"}, {"measurement": "Fold Enrichment relative to AAV9, Muscle (NHP)", "setting": "[1]; [9]", "value": 0.000, "unit": "fold"}]}
{"sequence": "KTVNAHDSPHKSGQNQLT", "values": [{"measurement": "Fold Enrichment relative to AAV9, Brain (Mouse)", "setting": "brain; NGS fold-enrichment, mouse brain", "value": 29.254, "unit": "fold"}, {"measurement": "Fold Enrichment relative to AAV9, Brain (NHP)", "setting": "[1]; NGS fold-enrichment of RNA, NHP brain", "value": 79.137, "unit": "fold"}, {"measurement": "Fold Enrichment relative to AAV9, DRG (NHP)", "setting": "[1]; NGS fold-enrichment, NHP DRG", "value": 0.000, "unit": "fold"}, {"measurement": "Fold Enrichment relative to AAV9, Heart (NHP)", "setting": "[1]; NGS fold-enrichment, NHP heart", "value": 0.233, "unit": "fold"}, {"measurement": "Fold Enrichment relative to AAV9, Liver DNA (NHP)", "setting": "[1]; NGS fold-enrichment, NHP liver DNA", "value": 0.045, "unit": "fold"}, {"measurement": "Fold Enrichment relative to AAV9, Liver RNA (NHP)", "setting": "[1]; NGS fold-enrichment, NHP liver RNA", "value": 0.753, "unit": "fold"}, {"measurement": "Fold Enrichment relative to AAV9, Muscle (NHP)", "setting": "[1]; NGS fold-enrichment, NHP muscle", "value": 0.178, "unit": "fold"}]}
{"sequence": "KTVNASGSPHSKAQNQLT", "values": [{"measurement": "Fold Enrichment relative to AAV9, Brain (Mouse)", "setting": "brain; mouse brain", "value": 99.559, "unit": "fold"}, {"measurement": "Fold Enrichment relative to AAV9, Brain (NHP)", "setting": "[1]; [2]", "value": 51.249, "unit": "fold"}, {"measurement": "Fold Enrichment relative to AAV9, DRG (NHP)", "setting": "[1]; NHP DRG", "value": 0.000, "unit": "fold"}, {"measurement": "Fold Enrichment relative to AAV9, Heart (NHP)", "setting": "[1]; NHP heart", "value": 0.000, "unit": "fold"}, {"measurement": "Fold Enrichment relative to AAV9, Liver DNA (NHP)", "setting": "[1]; NHP liver, DNA", "value": 0.268, "unit": "fold"}, {"measurement": "Fold Enrichment relative to AAV9, Liver RNA (NHP)", "setting": "[1]; NHP liver, RNA", "value": 0.000, "unit": "fold"}, {"measurement": "Fold Enrichment relative to AAV9, Muscle (NHP)", "setting": "[1]; NHP muscle", "value": 0.000, "unit": "fold"}]}
{"sequence": "KTVNGGGSPHSKAQHQQT", "values": [{"measurement": "Fold Enrichment relative to AAV9, Brain (Mouse)", "setting": "brain; mouse brain", "value": 138.544, "unit": "fold"}, {"measurement": "Fold Enrichment relative to AAV9, Brain (NHP)", "setting": "[1]; [2]", "value": 58.602, "unit": "fold"}, {"measurement": "Fold Enrichment relative to AAV9, DRG (NHP)", "setting": "[1]; NHP DRG", "value": 0.729, "unit": "fold"}, {"measurement": "Fold Enrichment relative to AAV9, Heart (NHP)", "setting": "[1]; NHP heart", "value": 0.000, "unit": "fold"}, {"measurement": "Fold Enrichment relative to AAV9, Liver DNA (NHP)", "setting": "[1]; NHP liver, DNA", "value": 0.043, "unit": "fold"}, {"measurement": "Fold Enrichment relative to AAV9, Liver RNA (NHP)", "setting": "[1]; NHP liver, RNA", "value": 0.000, "unit": "fold"}, {"measurement": "Fold Enrichment relative to AAV9, Muscle (NHP)", "setting": "[1]; NHP muscle", "value": 0.000, "unit": "fold"}]}
{"sequence": "KTVNGGGSPHSKAQNHQT", "values": [{"measurement": "Fold Enrichment relative to AAV9, Brain (Mouse)", "setting": "brain; mouse brain", "value": 67.188, "unit": "fold"}, {"measurement": "Fold Enrichment relative to AAV9, Brain (NHP)", "setting": "[1]; [2]", "value": 54.246, "unit": "fold"}, {"measurement": "Fold Enrichment relative to AAV9, DRG (NHP)", "setting": "[1]; NHP DRG", "value": 0.375, "unit": "fold"}, {"measurement": "Fold Enrichment relative to AAV9, Heart (NHP)", "setting": "[1]; NHP heart", "value": 0.024, "unit": "fold"}, {"measurement": "Fold Enrichment relative to AAV9, Liver DNA (NHP)", "setting": "[1]; NHP liver, DNA", "value": 0.146, "unit": "fold"}, {"measurement": "Fold Enrichment relative to AAV9, Liver RNA (NHP)", "setting": "[1]; NHP liver, RNA", "value": 0.000, "unit": "fold"}, {"measurement": "Fold Enrichment relative to AAV9, Muscle (NHP)", "setting": "[1]; NHP muscle", "value": 0.000, "unit": "fold"}]}
{"sequence": "KTVNGGGSPHSKAQNLQT", "values": [{"measurement": "Fold Enrichment relative to AAV9, Brain (Mouse)", "setting": "brain; mouse brain", "value": 83.215, "unit": "fold"}, {"measurement": "Fold Enrichment relative to AAV9, Brain (NHP)", "setting": "[1]; [2]", "value": 52.788, "unit": "fold"}, {"measurement": "Fold Enrichment relative to AAV9, DRG (NHP)", "setting": "[1]; NHP DRG", "value": 0.000, "unit": "fold"}, {"measurement": "Fold Enrichment relative to AAV9, Heart (NHP)", "setting": "[1]; NHP heart", "value": 0.031, "unit": "fold"}, {"measurement": "Fold Enrichment relative to AAV9, Liver DNA (NHP)", "setting": "[1]; NHP liver, DNA", "value": 0.165, "unit": "fold"}, {"measurement": "Fold Enrichment relative to AAV9, Liver RNA (NHP)", "setting": "[1]; NHP liver, RNA", "value": 0.000, "unit": "fold"}, {"measurement": "Fold Enrichment relative to AAV9, Muscle (NHP)", "setting": "[1]; NHP muscle", "value": 0.000, "unit": "fold"}]}
{"sequence": "KTVNGGGSPHSKAQNQQS", "values": [{"measurement": "Fold Enrichment relative to AAV9, Brain (Mouse)", "setting": "brain; [3]", "value": 61.847, "unit": "fold"}, {"measurement": "Fold Enrichment relative to AAV9, DRG (NHP)", "setting": "[1]; [4]", "value": 0.062, "unit": "fold"}, {"measurement": "Fold Enrichment relative to AAV9, Brain (NHP)", "setting": "[1]; [5]", "value": 59.871, "unit": "fold"}, {"measurement": "Fold Enrichment relative to AAV9, Heart (NHP)", "setting": "[1]; [6]", "value": 0.020, "unit": "fold"}, {"measurement": "Fold Enrichment relative to AAV9, Liver DNA (NHP)", "setting": "[1]; [7]", "value": 0.185, "unit": "fold"}, {"measurement": "Fold Enrichment relative to AAV9, Liver RNA (NHP)", "setting": "[1]; [8]", "value": 0.080, "unit": "fold"}, {"measurement": "Fold Enrichment relative to AAV9, Muscle (NHP)", "setting": "[1]; [9]", "value": 0.000, "unit": "fold"}]}
